# Experimental data as given in patent US20140194517A1, “Treatment of Graft-Versus-Host Disease Disorders using RAR Antagonists” (Io Therapeutics, Inc., priority 2013, published 2014).
# Tested on: B10.BR recipients (acute GVHD)
# Experiment: Acute GVHD after allogeneic BMT: lethally irradiated B10.BR recipients given B6 BM and splenocytes
# Type: in vivo, mice
# Conditions: 15×10^6 splenocytes, ATRA 200 μg/mouse IP daily day 0 to 28
# Protocol: FIG. 3. Heightened RA levels and RAR-α signaling exacerbates GVHD. Survival and weight curves of lethally irradiated B10.BR recipients (n=8/group) injected with 10^7 BM and 15×10^6 splenocytes from B6 mice. Subgroups were treated with vehicle (filled circles) or all trans retinoic acid (ATRA) (open circles) p=0.013.
# FIG. 4. Heightened RA levels and RAR-α signaling exacerbates GVHD. Survival and weight curves of lethally irradiated B10.BR recipients (n=8/group) injected with 10^7 BM and 5×10^6 splenocytes from B6 mice. Subgroups were treated with vehicle (filled circles) or ATRA (open circles) p=0.037.
# To determine whether heightened vitamin A signaling would augment acute GVHD, B10.BR recipients given BM with or without 15×10^6 splenocytes from B6 mice were given ATRA (200 μg/mouse IP) daily from day 0 to 28. […] These findings indicate heightened vitamin A levels and RAR signaling can enhance GVHD lethality.
structure (smiles),measurement,setting,value
"CC1=C(/C=C/C(C)=C/C=C/C(C)=C/C(=O)O)C(C)(C)CCC1 [ATRA, all trans retinoic acid]",GVHD lethality,p=0.013 vs vehicle,significant increase
same,median survival time (MST),vehicle 21.5 days,9 days
same,weight loss,vs vehicle,accelerated weight loss
